Measurements published in patent US20220324912A1, “THERAPEUTIC PEPTIDES” (COHBAR, INC., priority 2019, published 2022).
Non-standard residues stand in square brackets, D forms with d. No end group written: not given here.

What was measured:
[1] = system: Caspase 3/7 in C2C12 cells; assay: Caspase 3/7 Activity in C2C12 Cells; assay type: cell-based, mouse; conditions: peptides 10 μM, 24 hours, relative to 0.1% DMSO control
Method: The effect of the peptides on cell death/survival can be assessed using a caspase-3/7 assay in cultured cells such as mouse myoblast cells. Peptides were initially prepared as 10 mM stock in DMSO, diluted to 1 mM in H2O, and used at a final concentration of 10 μM (0.1% DMSO). […] Staurosporine (Abcam, Cambridge, Mass.) was dissolved at 10 mM in DMSO as a stock solution. Caspase-Glo 3/7 Assay Reagent was purchased from Promega (Madison, Wis.). C2C12 cell line was purchased from American Type Culture Collection (Manassas, Va.). C2C12 cells were grown in DMEM supplemented with 20% FBS with 100 IU/ml penicillin and 100 μg/ml streptomycin. Cultures were maintained at 37° C. in a humidified atmosphere of 5% CO2/95% air. C2C12 cells were seeded at 4,000 cells per well on 96-well plates. The next day cells were incubated with test peptides at 10 μM or staurosporine at concentrations between 100 nM and 5 nM using a final concentration of 0.1% DMSO and maintained at 37° C. in a humidified atmosphere of 5% CO2/95% air for 24 hours. Caspase 3/7 activity was determined using a Caspase-Glo 3/7 Assay kit according to the manufacturer's instructions. Luminescence for each sample well on the plate was measured using a Cytation 3 plate reader (BioTek, Winooski, Vt.). Activity was calculated relative to 0.1% DMSO control.

[2] = system: 3T3-L1 mouse adipocytes; assay: Free Fatty Acid Levels in 3T3-L1 Mouse Adipocytes (Example 12, 10 μM); assay type: cell-based; conditions: peptides 10 μM, 20-22 hours then 3 hours with isoproterenol 1 nM, 3T3-L1 mouse adipocytes
Method: The effect of the peptides on fatty acid metabolism can be assessed using an assay of free fatty acid levels in cultured cells such as mouse adipocytes. Peptides were initially prepared as 10 mM stock in DMSO, diluted to 1 mM in H2O, and used at a final concentration of 10 μM (0.1% DMSO). […] After 20-22 hours, 1 nM isoproterenol was added to all wells except untreated controls and test peptides were replenished. Insulin at 100 nM was added to control wells. […] Free fatty acid concentrations in the media were determined using a Free Fatty Acid Assay kit (Zen-Bio) according to the manufacturer's instructions using a Cytation 3 plate reader at 540 nm (BioTek, Winooski, Vt.). Absorbance values were corrected for untreated background and expressed relative to isoproterenol treated cells. Treatment with isoproterenol (1 nM) alone was used as the free fatty acid level stimulatory control. The relative standard deviation of the isoproterenol control was <10%. […] Free fatty acid levels for insulin (100 nM) treatment were <5% of the isoproterenol control value.

[3] = system: C2C12 cells; assay: Cell Proliferation in C2C12 Cells (Cyquant DNA dye); assay type: cell-based, mouse; conditions: peptides 10 μM, 72 hours with readdition every 24 hours, relative to 0.1% DMSO control
Method: The effect of the peptides on cell proliferation was assessed using a DNA dye binding assay in cultured cells such as mouse myoblast cells. Peptides were initially prepared as 10 mM stock in DMSO, diluted to 1 mM in H2O, and added at a final concentration of 10 μM (0.1% DMSO). Lovastatin was used as a growth arrest control at final concentration of […]. […] C2C12 cells were grown in DMEM supplemented with 20% FBS with 100 IU/ml penicillin and 100 μg/ml streptomycin. […] C2C12 cells were seeded at 800 cells per well on 96-well plates. […] Cell proliferation was determined using Cyquant Direct Nucleic Acid Stain (Thermo Fisher Scientific, Waltham, Mass.) according to the manufacturer's instructions. Fluorescence for each sample well on the plate was measured using a Cytation 3 plate reader at Ex/Em=495/535 nm (BioTek, Winooski, Vt.). Activity was calculated relative to 0.1% DMSO untreated control. The relative standard deviation for the lovastatin control was <27%. The cell proliferation for the lovastatin control was <25% of the value for untreated control.

[4] = system: C2C12 cells; assay: Cellular ROS Levels Induced by TBHP in C2C12 Cells (DCFDA); assay type: cell-based, mouse; conditions: peptides 10 μM, 18-20 hours, then TBHP 100 μM 1 hour, relative to TBHP control
Method: The protective or synergistic effect of the peptides on cellular levels of reactive oxygen species (ROS) induced by oxidative stress can be assessed using an assay of ROS in cultured cells such as mouse myoblasts exposed to a suitable oxidative stress. Peptides were initially prepared as 10 mM stock in DMSO, diluted to 1 mM in H2O, and added at a final concentration of 10 μM (0.1% DMSO). […] TBHP was used at final concentration of 100 μM. Sulforaphane at final concentration of 10 µM was used as a protective control against TBHP induced ROS production. […] C2C12 cells were grown in DMEM supplemented with 20% FBS with 100 IU/ml penicillin and 100 μg/ml streptomycin. […] C2C12 cells were seeded at 7,500 cells per well on 96-well plates. […] After 18-20 hours of incubation the cells were loaded with DCFDA for 45 min. TBHP at 100 μM was then added to the appropriate wells for 1 hour. ROS activity was determined using a DCFDA Cellular ROS Detection Assay kit (Abcam, Cambridge, Mass.) according to the manufacturer's instructions. Fluorescence in each sample well on the plate was measured using a Cytation 3 plate reader at Ex/Em=485/535 nm (BioTek, Winooski, Vt.). Activity was calculated relative to TBHP control. The relative standard deviation of the sulforaphane control was <20%. The ROS level produced by the sulforaphane control in the presence of TBHP was 52% of the TBHP control.

[5] = system: C2C12 cells; assay: ATP Levels in Cultured C2C12 Cells (CellTiter-Glo); assay type: cell-based, mouse; conditions: peptides 10 μM, 3 days with readdition every 24 hours, relative to 0.1% DMSO control
Method: The effect of the peptides on cellular metabolism can be assessed using an assay of ATP levels in cultured cells such as mouse myoblast cells. Peptides were initially prepared as 10 mM stock in DMSO, diluted to 1 mM in H2O, and used at a final concentration of 10 μM (0.1% DMSO). […] Lovastatin was prepared as 10 mM stock in 70% Ethanol and used at final concentration of 10 µM containing 0.1% DMSO. CellTiter-Glo® Assay kit was purchased from Promega (Madison, Wis.). […] C2C12 cells were grown in DMEM medium supplemented with 20% FBS with 100 IU/ml penicillin and 100 μg/ml streptomycin. […] C2C12 cells were seeded at 800 cells per well on 96-well plates. […] ATP levels were determined using a CellTiter-Glo Assay kit according to the manufacturer's instructions. Luminescence for each sample well on the plate was measured using a Cytation 3 plate reader (BioTek, Winooski, Vt.). Activity was calculated relative to 0.1% DMSO treated control. The relative standard deviation of the result for the 0.1% DMSO treated control was <5%. […] ATP levels for treatment with lovastatin (10 μM) were <50% of the 0.1% DMSO treated control value.

[6] = system: DIO mice; assay: Metabolic parameters in DIO mice, twice daily intraperitoneal, 10 days (Example 16); assay type: in vivo, mouse; conditions: 5 mg/kg, male DIO mice
Method: Male C57BL/6 mice were maintained on a high fat diet for 18 weeks to develop diet induced obesity. Animals were randomized to treatment groups based on blood glucose levels and body weight. The peptides of the invention were administered to groups of male DIO mice twice daily by intraperitoneal injection at a dose of 5 mg/kg/dose for 10 days (N=8 animals per treatment group). An additional group of male DIO mice (n=8) received vehicle (water) alone administered twice daily by intraperitoneal injection. Body weight, blood glucose levels and food intake were monitored. Body mass distribution (fat vs lean) was determined by quantitative whole body NMR prior to dosing and at the end of dosing.

16 (PGS[dA]ILTNPVLGWVWV) [compound 16]
Caspase 3/7 activity, Percent of Control Activity [1]: 99.7%
Free fatty acid levels, Percent of Isoproterenol Control Activity [2]: 97.2%
Cell proliferation, Percent of Control [3]: 100.3%
Cellular ROS levels induced by TBHP, Percent of Control [4]: 106.0%
ATP levels, Percent of Control Activity [5]: 102.7%

18 (S[dA]ILTNPVLGWVWV) [compound 18]
Caspase 3/7 activity, Percent of Control Activity [1]: 97.0%
Free fatty acid levels, Percent of Isoproterenol Control Activity [2]: 95.9%
Cell proliferation, Percent of Control [3]: 101.7%
Cellular ROS levels induced by TBHP, Percent of Control [4]: 100.7%
ATP levels, Percent of Control Activity [5]: 103.2%

15 (LPGS[dA]ILTNPVLGWVWV) [compound 15]
Caspase 3/7 activity, Percent of Control Activity [1]: 105.6%
Free fatty acid levels, Percent of Isoproterenol Control Activity [2]: 92.8%
Cell proliferation, Percent of Control [3]: 115.1%
Cellular ROS levels induced by TBHP, Percent of Control [4]: 101.5%
ATP levels, Percent of Control Activity [5]: 101.6%

11 (RLPGSAILTNPVL[dA]WVWV) [compound 11]
Caspase 3/7 activity, Percent of Control Activity [1]: 98.7%
Free fatty acid levels, Percent of Isoproterenol Control Activity [2]: 47.2%
Difference from Vehicle Control: Decrease from Baseline in Blood Glucose [6]: 4.76 mg/dL
Difference from Vehicle Control: Decrease from Baseline in Body Weight [6]: −1.81%
Difference from Vehicle Control: Decrease from Baseline in Fat Mass [6]: -1.09 g
Cell proliferation, Percent of Control [3]: 98.1%
Cellular ROS levels induced by TBHP, Percent of Control [4]: 103.5%
ATP levels, Percent of Control Activity [5]: 100.7%

17 (GS[dA]ILTNPVLGWVWV) [compound 17]
Caspase 3/7 activity, Percent of Control Activity [1]: 97.1%
Free fatty acid levels, Percent of Isoproterenol Control Activity [2]: 88.5%
Cell proliferation, Percent of Control [3]: 110.0%
Cellular ROS levels induced by TBHP, Percent of Control [4]: 100.8%
ATP levels, Percent of Control Activity [5]: 103.8%
